Data: ChEMBL document CHEMBL4265943, “Design and synthesis of potent dual inhibitors of JAK2 and HDAC based on fusing the pharmacophores of XL019 and vorinostat” (Eur J Med Chem, 2018)

Key:
HCT-116 [1] = assay: Induction of apoptosis in human HCT116 cells assessed as necrotic cells at 1.14 uM after 72 hrs by Annexin V-FITC/propidium iodide staining based flow cytometry (reference value: 1.54%); assay type: functional
[2] = Selectivity index, ratio of CC50 for mouse TAMH cells to IC50 for human PC3 cells; assay type: toxicity; details: TAMH cells (CC50) and PC3 cells (IC50)
Histone deacetylase 1 = Histone deacetylase 1 (Homo sapiens, UniProt Q13547); assay: Inhibition of HDAC1 (unknown origin) using Arg-His-Lys-Lys(Ac) as substrate preincubated with enzyme followed by substrate addition for 2 hrs and measured for 1.5 hrs at 15 mins time interval by fluorescence assay
PC-3 = assay: Induction of apoptosis in human PC3 cells assessed as early apoptotic cells at 0.71 uM after 72 hrs by Annexin V-FITC/propidium iodide staining based flow cytometry (reference value: […]%); assay type: functional
Homo sapiens [3] = organism: Homo sapiens; assay: Selectivity ratio of IC50 for human JAK1 to IC50 for human JAK2
[4] = molecular target: T1, Protein deacetylase HDAC6 (Homo sapiens, UniProt Q9UBN7); assay: Inhibition of HDAC6 (unknown origin) using Arg-His-Lys-Lys(Ac) as substrate preincubated with enzyme followed by substrate addition for 2 hrs and measured for 1.5 hrs at 15 mins time interval by fluorescence assay
T1 sequence (Q9UBN7 whole entry): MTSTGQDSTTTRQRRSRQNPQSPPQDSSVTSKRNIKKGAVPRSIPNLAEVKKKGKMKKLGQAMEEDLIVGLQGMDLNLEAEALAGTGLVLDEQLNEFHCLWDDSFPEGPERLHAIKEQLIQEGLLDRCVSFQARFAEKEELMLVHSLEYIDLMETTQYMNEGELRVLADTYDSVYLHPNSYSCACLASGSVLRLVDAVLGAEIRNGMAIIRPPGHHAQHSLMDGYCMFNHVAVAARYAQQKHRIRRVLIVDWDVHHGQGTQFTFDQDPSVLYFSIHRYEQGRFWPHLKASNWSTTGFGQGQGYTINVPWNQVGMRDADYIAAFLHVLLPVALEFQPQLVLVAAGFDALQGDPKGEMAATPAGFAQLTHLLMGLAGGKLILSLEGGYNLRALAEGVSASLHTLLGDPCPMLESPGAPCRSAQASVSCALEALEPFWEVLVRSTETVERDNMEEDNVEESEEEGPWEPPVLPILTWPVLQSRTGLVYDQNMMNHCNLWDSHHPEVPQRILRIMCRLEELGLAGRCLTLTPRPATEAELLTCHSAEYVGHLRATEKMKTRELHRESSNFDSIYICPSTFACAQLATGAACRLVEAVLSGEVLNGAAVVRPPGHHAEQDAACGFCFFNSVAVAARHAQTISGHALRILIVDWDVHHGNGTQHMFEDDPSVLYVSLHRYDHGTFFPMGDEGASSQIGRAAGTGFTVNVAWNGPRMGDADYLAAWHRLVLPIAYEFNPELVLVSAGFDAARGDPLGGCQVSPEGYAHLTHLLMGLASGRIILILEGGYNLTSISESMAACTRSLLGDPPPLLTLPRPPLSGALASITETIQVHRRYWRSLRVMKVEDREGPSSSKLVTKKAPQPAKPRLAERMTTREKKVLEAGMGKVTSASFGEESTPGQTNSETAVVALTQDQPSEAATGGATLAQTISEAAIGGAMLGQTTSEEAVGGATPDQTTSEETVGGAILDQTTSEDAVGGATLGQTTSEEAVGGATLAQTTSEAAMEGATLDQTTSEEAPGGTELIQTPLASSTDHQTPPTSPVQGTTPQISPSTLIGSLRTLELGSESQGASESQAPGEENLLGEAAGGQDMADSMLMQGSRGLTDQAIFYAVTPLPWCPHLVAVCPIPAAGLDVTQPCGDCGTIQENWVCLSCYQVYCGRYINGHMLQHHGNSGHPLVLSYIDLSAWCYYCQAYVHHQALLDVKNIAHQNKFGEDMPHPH

MCF7 [5] = assay: Induction of apoptosis in human MCF7 cells assessed as live cells at 0.86 uM after 72 hrs by Annexin V-FITC/propidium iodide staining based flow cytometry (reference value: 95.05%); assay type: functional
[6] = Selectivity index, ratio of CC50 for mouse TAMH cells to IC50 for human HCT116 cells; assay type: toxicity; details: TAMH cells (CC50) and HCT116 cells (IC50)
[7] = Selectivity index, ratio of CC50 for human AC10 cells to IC50 for human PC3 cells; assay type: toxicity; details: AC10 cells (CC50) and PC3 cells (IC50)
HCT-116 [8] = assay: Induction of apoptosis in human HCT116 cells assessed as late apoptotic cells at 1.14 uM after 72 hrs by Annexin V-FITC/propidium iodide staining based flow cytometry (reference value: 1.45%); assay type: functional
Homo sapiens [9] = organism: Homo sapiens; assay: Selectivity ratio of IC50 for human JAK3 to IC50 for human JAK2
MCF7 [10] = assay: Induction of apoptosis in human MCF7 cells assessed as late apoptotic cells at 0.86 uM after 72 hrs by Annexin V-FITC/propidium iodide staining based flow cytometry (reference value: 1.59%); assay type: functional
MDA-MB-231 [11] = assay: Induction of apoptosis in human MDA-MB-231 cells assessed as live cells at 0.9 uM after 72 hrs by Annexin V-FITC/propidium iodide staining based flow cytometry (reference value: 90.98%); assay type: functional
MCF7 [12] = assay: Induction of apoptosis in human MCF7 cells assessed as necrotic cells at 0.86 uM after 72 hrs by Annexin V-FITC/propidium iodide staining based flow cytometry (reference value: 2.17%); assay type: functional
MDA-MB-231 [13] = assay: Induction of apoptosis in human MDA-MB-231 cells assessed as necrotic cells at 0.9 uM after 72 hrs by Annexin V-FITC/propidium iodide staining based flow cytometry (reference value: 5.45%); assay type: functional
[14] = molecular target: Non-receptor tyrosine-protein kinase TYK2 (Homo sapiens, UniProt P29597); assay: Inhibition of human TYK2 using KKSRGDYMTMQIG as substrate preincubated for 20 mins followed by [gamma33P]ATP addition measured after 120 mins by ion exchange filter paper method
HCT-116 [15] = assay: Induction of apoptosis in human HCT116 cells assessed as early apoptotic cells at 1.14 uM after 72 hrs by Annexin V-FITC/propidium iodide staining based flow cytometry (reference value: 1.31%); assay type: functional
[16] = Selectivity index, ratio of CC50 for human AC10 cells to IC50 for human HCT116 cells; assay type: toxicity; details: AC10 cells (CC50) and HCT116 cells (IC50)
[17] = Selectivity index, ratio of CC50 for human AC10 cells to IC50 for human MCF7 cells; assay type: toxicity; details: AC10 cells (CC50) and MCF7 cells (IC50)
[18] = molecular target: Tyrosine-protein kinase JAK1 (Homo sapiens, UniProt P23458); assay: Inhibition of human JAK1 using poly(Glu:Tyr)(4:1) as substrate preincubated for 20 mins followed by [gamma33P]ATP addition measured after 120 mins by ion exchange filter paper method
[19] = Selectivity index, ratio of CC50 for mouse TAMH cells to IC50 for human MDA-MB-231 cells; assay type: toxicity; details: TAMH cells (CC50) and MDA-MB-231 cells (IC50)

Sequence of Non-receptor tyrosine-protein kinase TYK2 (P29597 whole entry): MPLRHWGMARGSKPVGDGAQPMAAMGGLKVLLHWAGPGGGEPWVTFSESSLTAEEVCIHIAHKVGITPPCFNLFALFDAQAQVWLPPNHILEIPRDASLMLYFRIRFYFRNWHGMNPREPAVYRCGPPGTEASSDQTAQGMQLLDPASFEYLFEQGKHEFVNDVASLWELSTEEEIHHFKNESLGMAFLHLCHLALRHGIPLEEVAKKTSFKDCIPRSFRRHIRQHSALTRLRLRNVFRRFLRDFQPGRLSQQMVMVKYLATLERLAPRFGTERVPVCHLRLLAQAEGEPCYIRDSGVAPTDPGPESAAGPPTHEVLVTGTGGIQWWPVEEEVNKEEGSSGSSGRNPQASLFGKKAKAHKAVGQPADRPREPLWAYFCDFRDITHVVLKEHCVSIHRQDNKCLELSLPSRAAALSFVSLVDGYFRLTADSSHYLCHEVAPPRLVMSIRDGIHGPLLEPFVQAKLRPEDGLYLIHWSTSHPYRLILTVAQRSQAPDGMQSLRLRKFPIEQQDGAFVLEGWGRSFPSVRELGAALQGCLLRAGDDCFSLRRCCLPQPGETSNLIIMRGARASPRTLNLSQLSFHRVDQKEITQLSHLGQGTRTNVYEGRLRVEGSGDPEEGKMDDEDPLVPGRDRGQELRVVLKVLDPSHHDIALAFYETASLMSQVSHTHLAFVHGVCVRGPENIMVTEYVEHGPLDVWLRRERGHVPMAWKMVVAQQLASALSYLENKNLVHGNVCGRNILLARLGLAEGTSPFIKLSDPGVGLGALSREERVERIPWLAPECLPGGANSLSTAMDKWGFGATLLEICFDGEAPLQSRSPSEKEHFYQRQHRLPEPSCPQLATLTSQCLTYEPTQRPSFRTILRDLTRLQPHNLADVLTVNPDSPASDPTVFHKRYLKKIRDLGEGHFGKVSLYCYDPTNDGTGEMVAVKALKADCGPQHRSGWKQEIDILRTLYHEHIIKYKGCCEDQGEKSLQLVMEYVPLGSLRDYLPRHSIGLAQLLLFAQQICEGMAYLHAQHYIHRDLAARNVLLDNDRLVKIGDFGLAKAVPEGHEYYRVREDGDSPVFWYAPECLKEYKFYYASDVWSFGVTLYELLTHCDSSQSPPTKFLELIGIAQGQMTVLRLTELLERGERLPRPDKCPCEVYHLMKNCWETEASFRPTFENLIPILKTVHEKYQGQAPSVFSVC
Sequence of Histone deacetylase 1 (Q13547 whole entry): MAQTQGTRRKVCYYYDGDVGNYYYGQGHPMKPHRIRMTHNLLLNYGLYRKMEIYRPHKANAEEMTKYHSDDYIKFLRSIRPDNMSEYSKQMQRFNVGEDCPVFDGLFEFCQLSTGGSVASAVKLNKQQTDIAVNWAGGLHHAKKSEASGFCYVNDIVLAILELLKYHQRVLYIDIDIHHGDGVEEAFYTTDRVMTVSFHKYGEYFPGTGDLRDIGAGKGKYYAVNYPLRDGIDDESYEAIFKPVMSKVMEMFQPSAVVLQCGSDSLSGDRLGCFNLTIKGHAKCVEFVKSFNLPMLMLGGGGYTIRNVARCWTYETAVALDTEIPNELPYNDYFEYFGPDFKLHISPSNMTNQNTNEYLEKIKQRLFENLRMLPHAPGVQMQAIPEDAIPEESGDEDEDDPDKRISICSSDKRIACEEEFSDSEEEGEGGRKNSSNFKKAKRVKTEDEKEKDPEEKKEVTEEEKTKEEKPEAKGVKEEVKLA
Sequence of Tyrosine-protein kinase JAK1 (P23458 whole entry): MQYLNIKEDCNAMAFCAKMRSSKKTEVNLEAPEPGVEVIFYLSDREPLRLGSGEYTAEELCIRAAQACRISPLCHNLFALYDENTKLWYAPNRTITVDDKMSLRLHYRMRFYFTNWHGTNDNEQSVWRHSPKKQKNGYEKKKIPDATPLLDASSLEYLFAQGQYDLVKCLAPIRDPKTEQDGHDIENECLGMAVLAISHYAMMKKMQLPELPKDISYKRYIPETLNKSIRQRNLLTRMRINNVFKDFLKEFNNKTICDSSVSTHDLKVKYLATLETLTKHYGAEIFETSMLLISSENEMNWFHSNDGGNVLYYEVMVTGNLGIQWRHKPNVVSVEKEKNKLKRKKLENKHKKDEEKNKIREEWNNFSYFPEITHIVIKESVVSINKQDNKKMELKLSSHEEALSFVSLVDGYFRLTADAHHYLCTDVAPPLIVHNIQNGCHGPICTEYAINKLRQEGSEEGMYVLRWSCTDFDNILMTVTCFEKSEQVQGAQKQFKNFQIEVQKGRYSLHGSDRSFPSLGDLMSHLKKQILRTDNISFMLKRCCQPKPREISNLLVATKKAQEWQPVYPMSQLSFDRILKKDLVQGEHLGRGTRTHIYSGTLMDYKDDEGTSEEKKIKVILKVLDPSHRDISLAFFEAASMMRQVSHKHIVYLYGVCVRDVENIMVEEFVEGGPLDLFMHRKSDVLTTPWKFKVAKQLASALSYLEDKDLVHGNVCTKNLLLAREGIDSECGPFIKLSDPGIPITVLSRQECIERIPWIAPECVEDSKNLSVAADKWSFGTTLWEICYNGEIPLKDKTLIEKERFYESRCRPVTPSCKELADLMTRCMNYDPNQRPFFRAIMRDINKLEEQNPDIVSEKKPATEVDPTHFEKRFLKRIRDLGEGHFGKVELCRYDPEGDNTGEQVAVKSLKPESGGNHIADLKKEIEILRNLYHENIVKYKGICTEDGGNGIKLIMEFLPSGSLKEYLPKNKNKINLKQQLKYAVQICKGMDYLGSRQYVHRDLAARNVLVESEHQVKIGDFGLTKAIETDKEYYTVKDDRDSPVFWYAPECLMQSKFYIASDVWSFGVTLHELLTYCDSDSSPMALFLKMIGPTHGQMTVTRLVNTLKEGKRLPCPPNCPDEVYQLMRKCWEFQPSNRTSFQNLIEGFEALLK

IC50 (Histone deacetylase 1): 56 nM
Ratio IC50 (Homo sapiens [3]): 16.8
IC50 [4]: 1.2 nM
Ratio IC50 (Homo sapiens [9]): 25.8
IC50 [14]: 79.4 nM
IC50 [18]: 52.1 nM
SMILES: O=C(CCCCCCC(=O)Nc1ccc(-c2ccnc(Nc3ccc(N4CCOCC4)cc3)n2)cc1)NO
Activity (HCT-116 [1]): 4.29%
selectivity ratio [2]: 9.98
Activity (PC-3): 45.69%
Activity (MCF7 [5]): 37.54%
selectivity ratio [6]: 6.09
selectivity ratio [7]: 6.22
Activity (HCT-116 [8]): 12.12%
Activity (MCF7 [10]): 24.84%
Activity (MDA-MB-231 [11]): 10.29%
Activity (MCF7 [12]): 7.97%
Activity (MDA-MB-231 [13]): 5.87%
Activity (HCT-116 [15]): 31.19%
selectivity ratio [16]: 3.79
selectivity ratio [17]: 5.69
selectivity ratio [19]: 6.45
